Experimental data from ChEMBL document CHEMBL1201862, “PubChem BioAssay data set” (2004).
Activity calls are given as the source filed them.

Assays:
[1] = microbe, parasite or virus in culture; type: functional; conditions: Mycobacterium tuberculosis
[2] = molecular target: T1, Fatty acid synthase (Homo sapiens, UniProt P49327); experiment: FAS thioesterase domain inhibitors, dose response, biochemical, endpoint fluorescence intensity, uHTS hits (AID 624327); type: functional;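 note: fluorescence from hydrolysis of an O-methyl fluorescein acyl ester substrate by the enzyme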
[3] = molecular target: T1, Fatty acid synthase; experiment: FAS thioesterase domain inhibitors, dose response, biochemical, kinetic fluorescence intensity (AID 624326); type: functional;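 note: rate of fluorescence rise from hydrolysis of a fluorogenic O-methyl fluorescein ester substrate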
[4] = A High Throughput Confirmatory Assay used to Identify Novel Compounds that Inhibit Mycobacterium Tuberculosis in the absence of Glycerol.; type: functional
[5] = molecular target: Lysosomal acid glucosylceramidase (Homo sapiens, UniProt P04062); experiment: Dose response cell-based high throughput screening assay to identify enhancers of beta-glucosidase activity. [Related pubchem assays: 784 ]; type: functional
[6] = Luminescence-based dose response cell-based high throughput screening assay for cytotoxic compounds using the IEC-6 intestinal epithelial cell line. [Related pubchem assays: 1858 (Summary AID.), 1825 (Counterscreen.), 1907 (Confirmation screen.)]; type: functional
[7] = molecular target: Cytochrome P450 3A4 (Homo sapiens, UniProt P08684); conditions: Potency;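 note: confirmatory qHTS run detecting inhibitors and substrates of CYP3A4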
[8] = molecular target: Cytochrome P450 2C9 (Homo sapiens, UniProt P11712); conditions: Potency
[9] = cytotoxicity toward NIH3T3 fibroblasts, dose response, counter-screen, cell-based, ATP luminescence, mouse fibroblasts (AID 2010); type: functional;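 note: cells exposed to compound for about 90 hours before reading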
[10] = cells
[11] = inhibitors of intracellular T. cruzi replication, confirmation, NIH3T3 host cells, beta-gal luminescence (AID 2044); type: functional, cell-based;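 note: intracellular parasites grown in NIH/3T3 mouse fibroblasts as host cells; luminescent beta-galactosidase reporter signal from transgenic T. cruzi replicating inside host cells; inhibitors lower the luminescence signal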
[12] = molecular target: T2, Aspartyl aminopeptidase (Plasmodium falciparum 3D7, UniProt Q8I2J3)
T2 sequence (Q8I2J3 whole entry): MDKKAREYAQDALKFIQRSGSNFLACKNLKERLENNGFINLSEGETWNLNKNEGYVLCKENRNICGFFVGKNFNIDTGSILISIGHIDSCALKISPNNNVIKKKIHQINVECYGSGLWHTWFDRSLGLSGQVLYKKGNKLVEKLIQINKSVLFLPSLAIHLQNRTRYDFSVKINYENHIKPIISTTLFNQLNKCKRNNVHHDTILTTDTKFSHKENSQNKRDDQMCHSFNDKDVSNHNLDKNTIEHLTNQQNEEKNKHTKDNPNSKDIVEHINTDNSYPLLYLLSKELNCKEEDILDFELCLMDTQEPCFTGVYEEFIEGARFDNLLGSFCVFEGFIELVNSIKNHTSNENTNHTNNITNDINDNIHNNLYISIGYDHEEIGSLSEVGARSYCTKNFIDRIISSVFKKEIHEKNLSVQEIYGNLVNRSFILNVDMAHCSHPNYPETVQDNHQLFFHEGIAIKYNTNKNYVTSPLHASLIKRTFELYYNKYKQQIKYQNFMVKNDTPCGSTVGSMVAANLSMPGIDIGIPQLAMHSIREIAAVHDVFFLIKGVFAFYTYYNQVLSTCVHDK

[13] = molecular target: Procathepsin L (Homo sapiens, UniProt P07711)
[14] = HEp-2 cell cytotoxicity, dose response, cytotoxicity control for RSV inhibitor project, HTS (AID 2410); type: functional; conditions: human respiratory syncytial virus
[15] = cells; remark: listed apart in the source
[16] = molecular target: Photoreceptor-specific nuclear receptor (Homo sapiens, UniProt Q9Y5X4); type: functional;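 note: potency for compounds that break the NR2E3 corepressor complex and count as activators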
[17] = molecular target: Peroxisome proliferator-activated receptor gamma/Nuclear receptor corepressor 2 (Homo sapiens, UniProt P37231+Q9Y618); type: functional
[18] = test system: Staphylococcus aureus; experiment: Inhibitors of Bacterial Quorum Sensing Structure Activity Relationship (SAR) Analysis: Dose Response Assay. [Related pubchem assays: 700, 527 ]; type: functional, organism-based
[19] = molecular target: Mothers against decapentaplegic homolog 3 (Homo sapiens, UniProt P84022); experiment: Smad3 binding inhibitors, lysate ELISA, dose response, cell lysate, secondary confirmation, chemiluminescent ELISA, HEK293 lysate (AID 1058); type: functional
Chain of Mothers against decapentaplegic homolog 3 (P84022 whole entry): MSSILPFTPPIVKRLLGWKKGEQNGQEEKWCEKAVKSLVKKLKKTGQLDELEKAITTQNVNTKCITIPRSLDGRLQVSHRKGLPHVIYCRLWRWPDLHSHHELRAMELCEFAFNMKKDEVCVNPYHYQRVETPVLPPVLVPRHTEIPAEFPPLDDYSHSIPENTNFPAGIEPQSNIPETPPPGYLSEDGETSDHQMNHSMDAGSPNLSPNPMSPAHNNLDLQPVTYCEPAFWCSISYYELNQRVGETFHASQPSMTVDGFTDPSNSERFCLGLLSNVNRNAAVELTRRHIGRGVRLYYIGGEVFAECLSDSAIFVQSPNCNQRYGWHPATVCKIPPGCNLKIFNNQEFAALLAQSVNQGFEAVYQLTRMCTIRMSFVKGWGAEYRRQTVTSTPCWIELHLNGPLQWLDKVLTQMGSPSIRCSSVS

T1 sequence (P49327 whole entry, the tested form may be a part): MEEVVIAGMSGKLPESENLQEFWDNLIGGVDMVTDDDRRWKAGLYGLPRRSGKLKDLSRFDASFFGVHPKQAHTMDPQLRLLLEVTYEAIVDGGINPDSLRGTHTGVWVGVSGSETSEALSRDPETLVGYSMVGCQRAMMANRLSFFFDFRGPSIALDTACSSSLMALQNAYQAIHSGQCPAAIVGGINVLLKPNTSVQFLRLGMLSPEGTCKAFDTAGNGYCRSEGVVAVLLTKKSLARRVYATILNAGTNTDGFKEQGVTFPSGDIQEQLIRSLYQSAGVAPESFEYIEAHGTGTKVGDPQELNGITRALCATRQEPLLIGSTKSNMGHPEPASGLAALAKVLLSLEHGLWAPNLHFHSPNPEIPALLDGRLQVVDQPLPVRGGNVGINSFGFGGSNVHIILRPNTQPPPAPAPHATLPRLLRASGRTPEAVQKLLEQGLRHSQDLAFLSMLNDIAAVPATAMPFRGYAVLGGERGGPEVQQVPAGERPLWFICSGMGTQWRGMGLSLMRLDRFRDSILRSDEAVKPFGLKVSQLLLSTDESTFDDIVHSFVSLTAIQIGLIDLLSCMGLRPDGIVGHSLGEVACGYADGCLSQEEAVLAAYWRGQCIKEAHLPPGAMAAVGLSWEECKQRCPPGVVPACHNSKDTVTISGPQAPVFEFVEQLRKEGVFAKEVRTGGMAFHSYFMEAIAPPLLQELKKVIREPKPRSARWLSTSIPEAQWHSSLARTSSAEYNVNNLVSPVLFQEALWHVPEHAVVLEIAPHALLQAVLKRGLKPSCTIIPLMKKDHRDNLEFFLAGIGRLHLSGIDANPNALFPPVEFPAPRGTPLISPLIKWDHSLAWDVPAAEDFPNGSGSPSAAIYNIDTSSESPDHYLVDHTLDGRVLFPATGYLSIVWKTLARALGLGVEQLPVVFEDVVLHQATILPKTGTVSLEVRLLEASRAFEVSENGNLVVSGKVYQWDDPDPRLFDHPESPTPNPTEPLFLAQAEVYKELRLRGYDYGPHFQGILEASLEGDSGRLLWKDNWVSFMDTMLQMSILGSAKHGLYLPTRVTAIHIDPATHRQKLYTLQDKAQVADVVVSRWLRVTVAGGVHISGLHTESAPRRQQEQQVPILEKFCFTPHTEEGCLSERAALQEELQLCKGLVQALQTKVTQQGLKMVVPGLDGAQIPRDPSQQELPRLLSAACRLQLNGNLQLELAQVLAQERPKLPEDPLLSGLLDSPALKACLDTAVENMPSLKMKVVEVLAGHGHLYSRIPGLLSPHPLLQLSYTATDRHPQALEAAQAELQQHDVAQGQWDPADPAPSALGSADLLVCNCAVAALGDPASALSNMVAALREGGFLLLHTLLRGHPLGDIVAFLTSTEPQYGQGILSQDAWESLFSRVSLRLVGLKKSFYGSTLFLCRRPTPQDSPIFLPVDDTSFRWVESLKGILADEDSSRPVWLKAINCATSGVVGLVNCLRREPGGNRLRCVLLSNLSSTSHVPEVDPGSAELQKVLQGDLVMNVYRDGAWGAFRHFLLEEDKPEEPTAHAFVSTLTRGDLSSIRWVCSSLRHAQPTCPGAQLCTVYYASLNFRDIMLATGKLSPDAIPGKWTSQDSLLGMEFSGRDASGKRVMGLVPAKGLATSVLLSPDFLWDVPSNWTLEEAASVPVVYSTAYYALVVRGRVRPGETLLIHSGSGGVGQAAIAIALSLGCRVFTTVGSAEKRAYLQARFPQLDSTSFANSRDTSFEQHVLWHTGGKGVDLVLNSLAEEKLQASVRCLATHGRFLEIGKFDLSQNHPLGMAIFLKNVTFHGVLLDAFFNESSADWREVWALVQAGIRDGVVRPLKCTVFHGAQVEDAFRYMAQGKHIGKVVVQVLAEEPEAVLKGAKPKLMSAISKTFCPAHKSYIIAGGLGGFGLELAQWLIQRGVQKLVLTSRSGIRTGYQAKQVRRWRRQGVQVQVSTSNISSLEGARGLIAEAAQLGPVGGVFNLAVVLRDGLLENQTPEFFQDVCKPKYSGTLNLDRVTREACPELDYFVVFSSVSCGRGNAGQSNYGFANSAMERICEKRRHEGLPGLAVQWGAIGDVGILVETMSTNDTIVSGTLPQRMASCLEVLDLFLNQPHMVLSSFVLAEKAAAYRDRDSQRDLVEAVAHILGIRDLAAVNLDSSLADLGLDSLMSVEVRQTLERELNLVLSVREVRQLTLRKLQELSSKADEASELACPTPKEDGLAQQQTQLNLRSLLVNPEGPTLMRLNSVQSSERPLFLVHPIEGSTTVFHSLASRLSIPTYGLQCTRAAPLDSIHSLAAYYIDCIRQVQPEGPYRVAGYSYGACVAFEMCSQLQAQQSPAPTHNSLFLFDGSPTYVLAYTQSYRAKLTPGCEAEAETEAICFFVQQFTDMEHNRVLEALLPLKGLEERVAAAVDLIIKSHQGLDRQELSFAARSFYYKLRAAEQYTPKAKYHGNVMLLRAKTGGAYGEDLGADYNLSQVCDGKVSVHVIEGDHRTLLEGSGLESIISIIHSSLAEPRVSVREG
Chain of Photoreceptor-specific nuclear receptor (Q9Y5X4 whole entry): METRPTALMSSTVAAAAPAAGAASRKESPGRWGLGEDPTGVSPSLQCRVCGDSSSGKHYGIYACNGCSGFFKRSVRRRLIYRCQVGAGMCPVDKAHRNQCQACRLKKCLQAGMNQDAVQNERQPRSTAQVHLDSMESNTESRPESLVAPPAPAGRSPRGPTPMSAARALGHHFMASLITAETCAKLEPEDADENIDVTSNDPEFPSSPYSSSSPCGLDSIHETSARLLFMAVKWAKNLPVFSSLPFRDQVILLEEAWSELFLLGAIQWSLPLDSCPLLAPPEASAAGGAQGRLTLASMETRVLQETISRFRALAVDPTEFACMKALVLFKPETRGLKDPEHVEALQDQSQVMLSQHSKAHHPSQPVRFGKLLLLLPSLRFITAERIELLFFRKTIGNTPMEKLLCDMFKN
Chain of Cytochrome P450 2C9 (P11712 whole entry): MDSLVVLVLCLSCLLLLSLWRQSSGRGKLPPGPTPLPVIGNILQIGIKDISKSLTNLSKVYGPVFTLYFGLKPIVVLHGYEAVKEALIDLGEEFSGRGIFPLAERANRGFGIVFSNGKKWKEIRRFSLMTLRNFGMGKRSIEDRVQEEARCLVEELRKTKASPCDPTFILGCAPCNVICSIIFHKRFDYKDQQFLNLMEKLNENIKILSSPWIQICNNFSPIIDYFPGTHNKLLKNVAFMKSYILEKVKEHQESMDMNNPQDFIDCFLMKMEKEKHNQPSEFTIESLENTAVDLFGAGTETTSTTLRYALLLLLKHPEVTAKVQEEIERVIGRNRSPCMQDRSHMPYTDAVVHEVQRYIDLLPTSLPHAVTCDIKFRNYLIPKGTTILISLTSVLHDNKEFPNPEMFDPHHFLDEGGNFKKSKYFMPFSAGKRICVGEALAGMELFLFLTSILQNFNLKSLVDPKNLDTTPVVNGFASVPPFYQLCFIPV
Chain of Cytochrome P450 3A4 (P08684 whole entry): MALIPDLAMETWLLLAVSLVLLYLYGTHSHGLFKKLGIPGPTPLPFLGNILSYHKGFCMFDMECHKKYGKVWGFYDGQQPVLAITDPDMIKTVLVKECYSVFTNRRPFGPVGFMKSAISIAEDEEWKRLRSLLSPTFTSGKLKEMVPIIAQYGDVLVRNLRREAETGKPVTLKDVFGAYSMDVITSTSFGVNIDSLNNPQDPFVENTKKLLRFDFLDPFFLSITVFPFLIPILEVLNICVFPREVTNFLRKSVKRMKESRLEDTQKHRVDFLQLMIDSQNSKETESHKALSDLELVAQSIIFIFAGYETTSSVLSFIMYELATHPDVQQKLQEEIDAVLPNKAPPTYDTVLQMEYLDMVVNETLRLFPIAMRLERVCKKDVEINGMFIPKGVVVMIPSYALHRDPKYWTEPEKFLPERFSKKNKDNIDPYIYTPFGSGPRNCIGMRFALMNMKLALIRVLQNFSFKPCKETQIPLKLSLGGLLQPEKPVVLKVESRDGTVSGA
Chain of Lysosomal acid glucosylceramidase (P04062 whole entry): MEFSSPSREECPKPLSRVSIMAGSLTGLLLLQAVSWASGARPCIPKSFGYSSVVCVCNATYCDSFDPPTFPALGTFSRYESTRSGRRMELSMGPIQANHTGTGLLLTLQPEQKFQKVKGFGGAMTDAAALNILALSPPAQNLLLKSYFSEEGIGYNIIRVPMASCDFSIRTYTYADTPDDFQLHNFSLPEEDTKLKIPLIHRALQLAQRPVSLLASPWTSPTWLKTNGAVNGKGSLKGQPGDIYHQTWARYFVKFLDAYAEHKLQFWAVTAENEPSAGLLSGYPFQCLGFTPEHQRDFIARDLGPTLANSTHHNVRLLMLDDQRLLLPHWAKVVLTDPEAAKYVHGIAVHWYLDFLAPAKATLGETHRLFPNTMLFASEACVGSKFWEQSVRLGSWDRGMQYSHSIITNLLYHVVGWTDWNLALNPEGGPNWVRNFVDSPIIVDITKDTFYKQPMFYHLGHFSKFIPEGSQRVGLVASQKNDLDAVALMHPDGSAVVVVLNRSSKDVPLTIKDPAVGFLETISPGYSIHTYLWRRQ

With `Fc1nc(F)c(F)c(NCCCNc2c(F)c(F)nc(F)c2F)c1F` the CC50 [1] was 24 µM (active), the IC50 [2] was 26 µM (inactive) and the IC50 [3] was 7.19 µM (active). For the same molecule, the IC50 [4] was > 100 µM (active).

For `O=C(NCCCN1CCCC1=O)c1ccc2c(=O)n(Cc3ccco3)c(=S)[nH]c2c1`, the EC50 [5] was > 50 µM (not active).

For `CCN1CCCC1CNC(=O)C1CCN(Cc2nc(-c3cccc(Br)c3)oc2C)CC1` (centres undefined), the IC50 [6] was 6.51 µM (active).

In the case of `CCC12C=C(/C=C/c3ccccc3)C(CC)(C1)C(c1ccccc1)CC2=O` (centres undefined), the AC50 [7] was 6.31 µM (inconclusive) and the AC50 [8] was 1.58 µM (inconclusive).

With `CCN(CC(=O)NCc1cccs1)C(=O)c1ccc([N+](=O)[O-])o1` the EC50 [9] was > 30 µM (not active), the EC50 [10] was 47 nM (active) and the EC50 [11] was < 100 nM (active).

For `COc1cc([N+](=O)[O-])ccc1N=C(S)Nn1cnnc1`, the IC50 [12] was 854 nM (active) and the IC50 [13] was > 59.6 µM (not active).

With `c1nc2cc(Cc3ccc4[nH]cnc4c3)ccc2[nH]1` the CC50 [14] was > 50 µM (active) and the IC50 [15] was 44.5 µM (active).

For `O=C(O)C1CCN(c2nc(-c3ccccc3)c3cc(Br)ccc3n2)CC1`, the IC50 [16] was > 39.8 µM (not active) and the IC50 [17] was 2.33 µM (active).

In the case of `O=C(O)c1cccnc1Nc1cccc(SC(F)(F)F)c1`, the IC50 [18] was 964 nM (active).

In the case of `COc1ccc(C(c2cc3c(cc2O)OCO3)N2CCCCC2)c(OC)c1` (centres undefined), the IC50 [19] was > 40 µM (not active).
